According to US6358885B1, “Substituted phenylheterocyclic herbicides” (Mississippi State University, priority 1992, dated 2002):

Legend:
barnyardgrass = experiment: Test C flood test plant response rating 0 to 100; assay type: in vivo, Echinochloa crus-galli; settings: for Plant response rating (0 to 100), Barnyardgrass: under POSTEMERGENCE head (flood test species); for Plant response rating, Barnyardgrass: flood test species listed under POSTEMERGENCE, 0 to 100 scale
From the text: (§1) The compounds evaluated in this test were formulated in a non-phytoxic solvent and applied to the soil surface before plant seedlings emerged (preemergence application), to water that covered the soil surface (flood application), and to plants that were in the one-to-four leaf stage (postemergence application). A sandy loam soil was used for the preemergence and postemergence tests, while a silt loam soil was used in the flood test. Water depth was approximately 2.5 cm for the flood test and was maintained at this level for the duration of the test. Plant species in the preemergence and postemergence tests consisted of barley (Hordeum vulgare), bedstraw (Galium aparine), blackgrass (Alopecurus myosuroides), chickweed (Stellaria media), corn (Zea mays), cotton (Gossypium hirsutum), crabgrass (Digitaria sanguinalis), downy brome (Bromus tectorum), giant foxtail (Setaria faberii), lambsquarters (Chenopodium album), morningglory (Ipomoea hederacea), pigweed ([…]), rape (Brassica napus), ryegrass (Lolium multiflorum), sorghum (Sorghum bicolor), soybean (Glycine max), speedwell (Veronica persica), sugar beet (Beta vulgaris), velvetleaf (Abutilon theophrasti), wheat (Triticum aestivum), wild buckwheat (Polygonum convolvulus), and wild oat (Avena fatua). All plant species were planted one day before application of the compound for the preemergence portion-of this test. Plantings of these species were adjusted to produce plants of appropriate size for the post-emergence portion of the test. […] All plant species were grown using normal greenhouse practices. Visual evaluations of injury expressed on treated plants, when compared to untreated controls, were recorded approximately fourteen to twenty one days after application of the test compound. […] A dash (-) response means no test result.

crabgrass = experiment: Test B preemergence/postemergence greenhouse plant response rating 0 to 10; assay type: in vivo, Digitaria spp.; settings: for Plant response rating, Crabgrass: 0 to 10 scale
In short: (§2)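 Planted seeds are treated preemergence with compound dissolved in a non-phytotoxic solvent, while postemergence applications go onto plants of two to eighteen cm. Plants stay in the greenhouse twelve to sixteen days and are then rated visually relative to controls.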

pigweed = experiment: Test C preemergence/postemergence greenhouse plant response rating 0 to 100; assay type: in vivo, Amaranthusretroflexus; settings: POSTEMERGENCE; for Plant response rating Pigweed: 0 to 100 scale
From the text: as §1

soybean = experiment: Test B preemergence/postemergence greenhouse plant response rating 0 to 10; assay type: in vivo, Glycine max; settings: 0 to 10 scale
In short: as §2

rice [1] = experiment: Test C flood test plant response rating 0 to 100; assay type: in vivo, Oryza sativa; settings: for Plant response rating Rice Japonica: flood test species listed under POSTEMERGENCE, 0 to 100 scale
From the text: as §1

purple nutsedge = experiment: Test B preemergence/postemergence greenhouse plant response rating 0 to 10; assay type: in vivo, Cyperus rotundus; settings: 0 to 10 scale
In short: as §2

corn = experiment: Test C preemergence/postemergence greenhouse plant response rating 0 to 100; assay type: in vivo, Zea mays; settings: POSTEMERGENCE; for Plant response rating, Corn: 0 to 100 scale
From the text: as §1

cocklebur = experiment: Test B preemergence/postemergence greenhouse plant response rating 0 to 10; assay type: in vivo, Xanthium pensylvanicum; settings: for Plant response rating, Cocklebur: 0 to 10 scale
In short: as §2

bedstraw = experiment: as above; assay type: in vivo, Galium aparine; settings: for Plant response rating, Bedstraw: 0 to 10 scale
In short: as §2

morningglory = experiment: Test C preemergence/postemergence greenhouse plant response rating 0 to 100; assay type: in vivo, Ipomoea hederacea; settings: POSTEMERGENCE; for Plant response rating, Morningglory: 0 to 100 scale
From the text: as §1

blackgrass = experiment: Test B preemergence/postemergence greenhouse plant response rating 0 to 10; assay type: in vivo, Alopecurus myosuroides; settings: for Plant response rating, Blackgrass: 0 to 10 scale
In short: as §2

sugar beet = experiment: as above; assay type: in vivo, Beta vulgaris; settings: 0 to 10 scale
In short: as §2

barley = experiment: as above; assay type: in vivo, Hordeum vulgare; settings: for Plant response rating, Barley: 0 to 10 scale
In short: as §2

umbrella sedge = experiment: Test C flood test plant response rating 0 to 100; assay type: in vivo, Cyperus difformis; settings: for Plant response rating Umbrella sedge: flood test species listed under POSTEMERGENCE, 0 to 100 scale
From the text: as §1

lambsquarters = experiment: Test B preemergence/postemergence greenhouse plant response rating 0 to 10; assay type: in vivo, Chenopodium album; settings: 0 to 10 scale
In short: as §2

rape = experiment: as above; assay type: in vivo, Brassica napus; settings: 0 to 10 scale
In short: as §2

rice [2] = experiment: as above; assay type: in vivo, Oryza sativa; settings: 0 to 10 scale
In short: as §2

sorghum = experiment: Test C preemergence/postemergence greenhouse plant response rating 0 to 100; assay type: in vivo, Sorghum bicolor; settings: POSTEMERGENCE; for Plant response rating, Sorghum: 0 to 100 scale
From the text: as §1

[3] = POSTEMERGENCE section, flood test, Rate 4 g/ha
[4] = Rate 16 g/ha, under POSTEMERGENCE head (flood test species)

## COC(=O)C(C)Oc1cc(-c2nn3c(c2Cl)CCCC3)c(F)cc1Cl (stereo not drawn) [Compound 28]
barnyardgrass; Rate 4 g/ha
  Plant response rating (0 to 100), Barnyardgrass: 35
barnyardgrass; Rate 16 g/ha
  Plant response rating (0 to 100), Barnyardgrass: 50
barnyardgrass; 62 g/ha
  Plant response rating, Barnyardgrass: 95
barnyardgrass; 250 g/ha
  Plant response rating, Barnyardgrass: 100
crabgrass; POSTEMERGENCE, Rate 50 g/ha
  Plant response rating (0 to 10 scale), Crabgrass: 5
crabgrass; POSTEMERGENCE, Rate 200 g/ha
  Plant response rating, Crabgrass: 6
crabgrass; PREEMERGENCE, Rate 50 g/ha
  Plant response rating, Crabgrass: 0
crabgrass; Rate 200 g/ha, PREEMERGENCE
  Plant response rating, Crabgrass: 2
pigweed; 62 g/ha
  Plant response rating Pigweed: 100
pigweed; 250 g/ha
  Plant response rating Pigweed: 100
pigweed; Rate 4 g/ha
  Plant response rating (0 to 100), Pigweed: 100
pigweed; Rate 16 g/ha
  Plant response rating (0 to 100), Pigweed: 100
soybean; POSTEMERGENCE, Rate 50 g/ha
  Plant response rating, Soybean: 8
soybean; POSTEMERGENCE, Rate 200 g/ha
  Plant response rating, Soybean: 9
soybean; PREEMERGENCE, Rate 50 g/ha
  Plant response rating, Soybean: 0
soybean; Rate 200 g/ha, PREEMERGENCE
  Plant response rating, Soybean: 0
Rice [1]; [3]
  Plant response rating (0 to 100), Rice Japonica: 0
Rice [1]; [4]
  Plant response rating (0 to 100), Rice Japonica: 45
Rice [1]; 62 g/ha
  Plant response rating Rice Japonica: 65
Rice [1]; 250 g/ha
  Plant response rating Rice Japonica: 85
Purple nutsedge; POSTEMERGENCE, Rate 50 g/ha
  Plant response rating, Nutsedge: 2
Purple nutsedge; POSTEMERGENCE, Rate 200 g/ha
  Plant response rating, Nutsedge: 5
Purple nutsedge; PREEMERGENCE, Rate 50 g/ha
  Plant response rating, Nutsedge: 0
Purple nutsedge; Rate 200 g/ha, PREEMERGENCE
  Plant response rating, Nutsedge: 0
corn; 62 g/ha
  Plant response rating, Corn: 80
corn; 250 g/ha
  Plant response rating, Corn: 90
corn; Rate 4 g/ha
  Plant response rating (0 to 100), Corn: 20
corn; Rate 16 g/ha
  Plant response rating (0 to 100), Corn: 25
cocklebur; POSTEMERGENCE, Rate 50 g/ha
  Plant response rating (0 to 10 scale), Cocklebur: 9
cocklebur; POSTEMERGENCE, Rate 200 g/ha
  Plant response rating, Cocklebur: 10
cocklebur; PREEMERGENCE, Rate 50 g/ha
  Plant response rating, Cocklebur: 0
cocklebur; Rate 200 g/ha, PREEMERGENCE
  Plant response rating, Cocklebur: 1
bedstraw; POSTEMERGENCE, Rate 50 g/ha
  Plant response rating (0 to 10 scale), Bedstraw: 9
bedstraw; POSTEMERGENCE, Rate 200 g/ha
  Plant response rating, Bedstraw: 10
bedstraw; PREEMERGENCE, Rate 50 g/ha
  Plant response rating, Bedstraw: 8
bedstraw; Rate 200 g/ha, PREEMERGENCE
  Plant response rating, Bedstraw: 10
morningglory; 62 g/ha
  Plant response rating, Morningglory: 100
morningglory; 250 g/ha
  Plant response rating, Morningglory: 100
morningglory; Rate 4 g/ha
  Plant response rating (0 to 100), Morningglory: 50
morningglory; Rate 16 g/ha
  Plant response rating (0 to 100), Morningglory: 80
blackgrass; POSTEMERGENCE, Rate 50 g/ha
  Plant response rating (0 to 10 scale), Blackgrass: 4
blackgrass; POSTEMERGENCE, Rate 200 g/ha
  Plant response rating, Blackgrass: 6
blackgrass; PREEMERGENCE, Rate 50 g/ha
  Plant response rating, Blackgrass: 2
blackgrass; Rate 200 g/ha, PREEMERGENCE
  Plant response rating, Blackgrass: 4
Sugar beet; POSTEMERGENCE, Rate 50 g/ha
  Plant response rating, Sugar beet: 10
Sugar beet; POSTEMERGENCE, Rate 200 g/ha
  Plant response rating, Sugar beet: 10
Sugar beet; PREEMERGENCE, Rate 50 g/ha
  Plant response rating, Sugar beet: 10
Sugar beet; Rate 200 g/ha, PREEMERGENCE
  Plant response rating, Sugar beet: 10
barley; POSTEMERGENCE, Rate 50 g/ha
  Plant response rating (0 to 10 scale), Barley: 6
barley; POSTEMERGENCE, Rate 200 g/ha
  Plant response rating, Barley: 6
barley; PREEMERGENCE, Rate 50 g/ha
  Plant response rating, Barley: 0
barley; Rate 200 g/ha, PREEMERGENCE
  Plant response rating, Barley: 0
Umbrella sedge; [3]
  Plant response rating (0 to 100), Umbrella sedge: 0
Umbrella sedge; [4]
  Plant response rating (0 to 100), Umbrella sedge: 0
Umbrella sedge; 62 g/ha
  Plant response rating Umbrella sedge: 20
Umbrella sedge; 250 g/ha
  Plant response rating Umbrella sedge: 70
lambsquarters; POSTEMERGENCE, Rate 50 g/ha
  Plant response rating, Lambsquarter: 10
lambsquarters; POSTEMERGENCE, Rate 200 g/ha
  Plant response rating, Lambsquarter: 10
lambsquarters; PREEMERGENCE, Rate 50 g/ha
  Plant response rating, Lambsquarter: 10
lambsquarters; Rate 200 g/ha, PREEMERGENCE
  Plant response rating, Lambsquarter: 10
rape; POSTEMERGENCE, Rate 50 g/ha
  Plant response rating, Rape: 10
rape; POSTEMERGENCE, Rate 200 g/ha
  Plant response rating, Rape: 10
rape; PREEMERGENCE, Rate 50 g/ha
  Plant response rating, Rape: 9
rape; Rate 200 g/ha, PREEMERGENCE
  Plant response rating, Rape: 10
Rice [2]; POSTEMERGENCE, Rate 50 g/ha
  Plant response rating, Rice: 5
Rice [2]; POSTEMERGENCE, Rate 200 g/ha
  Plant response rating, Rice: 7
Rice [2]; PREEMERGENCE, Rate 50 g/ha
  Plant response rating, Rice: 0
Rice [2]; Rate 200 g/ha, PREEMERGENCE
  Plant response rating, Rice: 2
sorghum; 62 g/ha
  Plant response rating, Sorghum: 100
sorghum; 250 g/ha
  Plant response rating, Sorghum: 100
sorghum; Rate 4 g/ha
  Plant response rating (0 to 100), Sorghum: 20
sorghum; Rate 16 g/ha
  Plant response rating (0 to 100), Sorghum: 50
